Measured values reported in patent publication US20180282415A1, “Combination of a PD-1 Axis Binding Antagonist and an ALK Inhibitor for Treating ALK-Negative Cancer” (Merck Patent GmbH, priority 2015, published 2018).

Tests used:
CT26 colon carcinoma = assay: In vivo tumor efficacy, CT26 model, PF-06463922 with anti-PD-L1 (Example 2); set-up: species or system Balb/c mice; conditions: for Average tumor volume: anti-PD-L1 10 mg/kg i.p. every 3 days x3, PF-06463922 3 mg/kg orally once daily; for Effect on CT26 tumor growth: treatment started in tumors of 100-150 mm^3, compared with isotype
Description: Both CT26 colon carcinoma and B16 melonoma cell lines have published mutanome and transcriptome data, with no known ALK fusion events or oncogenic mutations. Castle et al, BMC Genomics, 15:190 (13 Mar. 2014); Castle et al, CAN 11:3722 (11 Jan. 2012). […] The percentage of TGI was defined as 1-(Tumor volumnTreated/Tumor volumnisotype control)×100.
(§1) The CT26 colon carcinoma cell line was purchased from ATCC® CRL-2638™. B16-F10 (‘B16’) melonoma cell lines were purchased from ATCC® CRL-6475™. Cells were cultured in DMEM medium supplemented with 10% fetal bovine serum, and 100 I.U./mL penicillin/streptomycin at 37° C. in an atmosphere of 5% CO2 in air, and IMPACT-tested for pathogens at Research Animal Diagnostic Laboratory (RADIL) (Columbia, Mo.). Pathogen-free cells growing in an exponential growth phase were harvested and used for tumor inoculation.
(§2) Rat IgG2a isotype control were purchased from BioXcell (clone 2A3)(West Lebanon, N.H.).
(§3) For the second study, C57BL/6 mice were inoculated subcutaneously in the right lower flank with 0.1 ml of 1×10^6 B16 skin melanoma cells. When tumor bearing mice achieved a mean tumor volume of 100 to 150 mm^3, mice were randomly assigned to 1 of 4 treatment groups, n=10.

[1] = test system: CD3/CD28-stimulated effector cells (T cells from healthy donors' PBMCs); assay: T cell proliferation assay (3H thymidine incorporation), CD3/CD28-stimulated T cells; format: cell-based, human; conditions: for Thymidine incorporation(CPM): log[Agonist]
Description: (§4) Briefly, human cells were isolated from healthy donors' PBMCs by using EasySep™ Human T Cell Enrichment Kit (Stemcell Technologies) according to manufacturer's instruction. […] Culture supernatants were collected on Day 2 or 3 for cytokine analysis. Plates were then harvested on DNA specific filter papers (Perkin Elmer) using Harvester96 (Tomtec Life Sciences). The radiolabeled filters were covered with beta scintillation liquid (Perkin Elmer) and read in Microbeta® counter plates (Perkin Elmer). ^3H Thymidine was pulsed on Day 2 for T cell proliferation assay.

B16 skin melanoma = assay: In vivo tumor efficacy, B16 melanoma model, PF-06463922 with anti-PD-L1 (Example 2); set-up: species or system C57BL/6 mice; conditions: end of study (day 22 post tumor implant), n=10
Procedure: as §1, §2, §3

activated T cells = assay: T cell viability, Cell-Titer Glo Luminescent Cell Viability Assay; format: cell-based, human; conditions: for Luciferase RLU (T cell viability): log[Agonist]
Procedure: as §4, with “instruction. […] Cells were cultured in RPMI 1640 medium supplemented with 10% FCS and 100 I.U./mL penicillin/streptomycin in humidified incubator at 37° C. with 5% CO2.” for “instruction.”, “assay. The impact by sunitinib and axitinib on T cell proliferation and viability were repeated as previously published (FIGS. 1A and 1B).” for “assay.”
Cell viability was measured by Cell-Titer Glo Luminescent Cell Viability Assay® (Promega, Madison). […] Table 4 below provides the Luciferase RLU values reflecting T cell viability for each of the respective inhibitors.

C[C@H]1Oc2cc(cnc2N)-c2c(nn(C)c2C#N)CN(C)C(=O)c2ccc(F)cc21 [PF-06463922, (10R)-7-amino-12-fluoro-2,10,16-trimethyl-15-oxo-10,15,16,17-tetrahydro-2H-8,4-(metheno)pyrazolo[4,3-h][2,5,11]benzoxadiazacyclotetradecine-3-carbonitrile]
Average tumor volume (CT26 colon carcinoma; Day 5): 181.85 ± 12.6828 mm^3 | Average tumor volume (CT26 colon carcinoma; Day 9): 253.14 ± 34.78 mm^3 | Average tumor volume (CT26 colon carcinoma; Day 14): 548.44 ± 96.03 mm^3 | Average tumor volume (CT26 colon carcinoma; Day 17): 962.02 ± 180.1961 mm^3 | Average tumor volume (CT26 colon carcinoma; Day 21): 1696.96 ± 285.9975 mm^3 | tumor growth inhibition (TGI) (CT26 colon carcinoma; day 21 post tumor inoculation, relative to the isotype control): 28.3% | Effect on CT26 tumor growth (CT26 colon carcinoma): partially effective | Effect on CT26 tumor growth (CT26 colon carcinoma; listed as ALK inhibitor): did not consistently inhibit CT26 tumor growth | Effect on T cell proliferation ([1]; activated T cells, FIG. 1A): did not have adverse effects on T cell proliferation | Thymidine incorporation(CPM) ([1]; μM: 0): 399866.7 ± 10135.82 CPM | Thymidine incorporation(CPM) ([1]; μM: 1): 364978.7 ± 37421.4 CPM | Thymidine incorporation(CPM) ([1]; μM: 2): 258875.3 ± 25269.1 CPM | Thymidine incorporation(CPM) ([1]; μM: 3): 94120.66 ± 2728.719 CPM | Thymidine incorporation(CPM) ([1]; μM: −1): 416579.3 ± 23523.21 CPM | Thymidine incorporation(CPM) ([1]; μM: −2): 411422.3 ± 13377.95 CPM | Thymidine incorporation(CPM) ([1]; μM: −3): 401448.3 ± 37205.07 CPM | animals with a complete response (tumor free) (B16 skin melanoma): no animals having a complete response | Effect on T cell viability (activated T cells; FIG. 1B): did not result in dose-dependent decreases in T cell viability | Luciferase RLU (T cell viability) (activated T cells; μM: 0): 88.53 ± 0.7567 RLU | Luciferase RLU (T cell viability) (activated T cells; μM: 1): 89.118 ± 1.283 RLU | Luciferase RLU (T cell viability) (activated T cells; μM: 2): 88.6231 ± 1.573 RLU | Luciferase RLU (T cell viability) (activated T cells; μM: 3): 40.36 ± 9.736 RLU | Luciferase RLU (T cell viability) (activated T cells; μM: −1): 97.8625 ± 2.288 RLU | Luciferase RLU (T cell viability) (activated T cells; μM: −2): 95.86 ± 0.6202 RLU | Luciferase RLU (T cell viability) (activated T cells; μM: −3): 98.17 ± 0.6606 RLU
